Molecular target: T1, ADRA1A (Homo sapiens, UniProt P35348)
T1 construct: purchased Promega (in-house HiBiT-GPCR construct library, NanoBRET)
T1 sequence (P35348 1-466): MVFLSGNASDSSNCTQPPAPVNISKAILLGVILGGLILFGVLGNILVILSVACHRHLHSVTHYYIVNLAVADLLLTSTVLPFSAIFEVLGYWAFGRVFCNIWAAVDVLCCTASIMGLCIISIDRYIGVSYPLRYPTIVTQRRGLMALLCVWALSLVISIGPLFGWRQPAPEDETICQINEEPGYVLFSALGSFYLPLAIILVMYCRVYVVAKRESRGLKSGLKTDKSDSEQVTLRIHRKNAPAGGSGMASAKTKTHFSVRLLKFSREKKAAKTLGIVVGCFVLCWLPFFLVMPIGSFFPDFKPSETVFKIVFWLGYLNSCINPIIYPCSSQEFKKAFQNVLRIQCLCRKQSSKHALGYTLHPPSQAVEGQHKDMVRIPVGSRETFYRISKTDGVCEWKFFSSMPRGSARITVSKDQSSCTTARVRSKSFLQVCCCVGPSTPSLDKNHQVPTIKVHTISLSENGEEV
Experiment: NanoBRET screen HiBiT-ADRA1A in HEK293
Assay type: binding
Procedure: Each tracer candidate was screened across the entire library of HiBiT-GPCR constructs using NanoBRET as the detection modality. As depicted in Figure 4A, the specificity of interactions was evaluated through decrease in BRET due to competitive displacement of a bound tracer by excess parental compound. Each tracer was analyzed for binding to each HiBiT-GPCR fusion in the absence and in the presence of competing parental compound. Briefly, HEK293 cells were transfected with HiBiT-GPCR constructs diluted into promoterless DNA to reduce expression and maximize translocation to the cell surface. Each tracer candidate was then screened at concentrations of 1 μM and 0.1 μM across cells expressing these fusions. Cells were treated for 1.5 h with tracer either alone or in the presence of 20 μM competing parental compound (i.e., control). BRET was measured upon addition of purified LgBiT and subsequent complementation with HiBiT genetically fused to a GPCR. The specificity of interactions was assessed through a decrease in BRET signal due to competitive displacement of the bound tracer. To further gauge the robustness of these interactions, the fold response over the control (i.e., BRETtracer/BRETcontrol) was calculated. We chose a 1.5-fold response, which translates to ≥7-fold signal over noise as the minimal threshold required to score an interaction as positive.
HiBiT-GPCR DNA constructs were diluted in 10 mM Tris pH 8 to a final concentration of 0.01 μg/μL, arrayed in 96-well plates and stored at −20 °C. For transfection, HEK293 cells were suspended in Opti-MEM (without phenol red) supplemented with 2% fetal bovine serum (Seradigm) and 100 units/mL penicillin–streptomycin (Gibco) at a final concentration of 220,000 cells/mL and dispensed into white 96-well plates at 90 μL/well. Subsequent transfections and screens were carried using an Agilent Bravo Automated Liquid Handling Platform. First, the 96-well HiBiT DNA arrays were diluted 25-fold in Opti-MEM (without serum or phenol red) to a final concentration of 0.0004 μg/μL and 20 μL of the diluted DNAs were transferred into new 96-well plates. Next, promoterless carrier DNA (1 μg/μL) was diluted 25-fold (0.04 μg/μL) and then dispensed into the diluted arrays at 20 μL/well. Following brief mixing, Viafect transfection reagent (Promega) diluted 16-fold into Opti-MEM was dispensed into the plates at 40 μL/well. After mixing by pipetting, plates were incubated for 10 min on the pipetting station deck. The DNA-transfection reagent complexes were then added to plates containing cells. To facilitate the screen, 10 μL of DNA-transfection reagent complexes were added in duplicates to the top 4 and bottom 4 rows, resulting in two identical 48-well arrays per plate. Plates with transfected cells were incubated for 18–20 h at 37 °C/5% CO2. A screen of each tracer across the entire library using two different concentrations requires duplicate plates of transfected cells. Depending on the number of tracers being screened, transfections can be scaled up using the same ratios. The next day, for each tracer, four 20× screening solutions in tracer dilution buffer (Promega) were prepared: two duplicates at final concentration of 20 μM and two duplicates at a final concentration of 2 μM. […] The four resulting solutions were diluted 4-fold in Opti-MEM without serum or phenol red to generate 5× solutions (5 µM and 0.5 µM tracer +/− 100 μM competing compound). To screen the library, a BioTek MultiFlo FX liquid dispenser was used to dispense 22.5 µL of tracer solution to the top 4 rows and 22.5 µL tracer + competing compound solution to the 4 bottom rows. Plates were briefly mixed on an orbital shaker and incubated for 1.5 h at room temperature. […] Plates were briefly mixed on an orbital shaker and incubated for 15 min to allow complementation.

Compound	NanoBRET Fold Response (ADRA1A, tracer 0.1μM)	NanoBRET Fold Response (ADRA1A, tracer 1μM)	other results
O=C(CCc1ccc2n1[B-](F)(F)[N+]1=C(c3ccc[nH]3)C=CC1=C2)NCc1ccc(C(=O)NCCOCCC(=O)N[C@@H]2CC[C@@]3(O)[C@H]4Cc5ccc(O)c6c5[C@@]3(CCN4CC3CC3)[C@H]2O6)cc1 [Naltrexone-3-NB590]	1.10	0.96	–
O=C(CCOCCOCCOCCOCCNC(=O)CCc1ccc2n1[B-](F)(F)[N+]1=C(c3ccc[nH]3)C=CC1=C2)NCCCN1CCN(C2=Nc3cc(Cl)ccc3Nc3ccccc32)CC1 [Clozapine-a-2-NB590]	–	–	NanoBRET Fold Response (ADRA1A, 0.1μM tracer): 3.90; NanoBRET Fold Response (ADRA1A, 1μM tracer): 3.21
CCOC(=O)c1cc(C#N)c(N2CCC(C(=O)NS(=O)(=O)Cc3ccccc3/C=C/C(=O)NCCNC(=O)CCc3ccc4n3[B-](F)(F)[N+]3=C(c5ccc[nH]5)C=CC3=C4)CC2)nc1C [AZD1283-1-NB590]	–	–	NanoBRET Fold Response (ADRA1A, 0.1μM): 1.06; NanoBRET Fold Response (ADRA1A, 1μM): 1.06
COc1ccc2[nH]c(-c3ccc(CNC(=O)CCOCCOCCOCCOCCNC(=O)CCc4ccc5n4[B-](F)(F)[N+]4=C(c6ccc[nH]6)C=CC4=C5)cc3)c(CCNC(C)=O)c2n1 [AzomelatoninICO9-2-NB590]	–	–	NanoBRET Fold Response (0.1μM tracer): 1.06; NanoBRET Fold Response (1μM tracer): 0.94
CCCn1c(=O)c2[nH]c(-c3ccc(OCC(=O)NCCNC(=O)CCOCCNC(=O)c4ccc(CNC(=O)CCc5ccc6n5[B-](F)(F)[N+]5=C(c7ccc[nH]7)C=CC5=C6)cc4)cc3)nc2n(CCC)c1=O [XAC-3-NB590]	1.10	0.94	–
COc1ccccc1N1CCN(CCCCN2C(=O)c3ccc(CNC(=O)CCOCCNC(=O)c4ccc(CNC(=O)CCc5ccc6n5[B-](F)(F)[N+]5=C(c7ccc[nH]7)C=CC5=C6)cc4)cc3C2=O)CC1 [NAN-190-3-NB590]	3.94	3.91	–
CN(CCC=C1c2ccccc2CCc2ccccc21)C(=O)CCOCCOCCOCCOCCNC(=O)CCc1ccc2n1[B-](F)(F)[N+]1=C(c3ccc[nH]3)C=CC1=C2 [Amitriptyline-e-2-NB590]	–	–	NanoBRET Fold Response (tracer at 1μM): 1.32
O=C(CCc1ccc2n1[B-](F)(F)[N+]1=C(c3ccc[nH]3)C=CC1=C2)NCc1ccc(C(=O)NCCOCCOCCNCC(O)COc2cccc3ccccc23)cc1 (stereo not drawn) [Propranolol-3-NB590]	–	–	NanoBRET Fold Response (ADRA1A, 0.1μM): 1.53; NanoBRET Fold Response (ADRA1A, 1μM): 1.47
COc1ccc2c(n1)c(CCNC(C)=O)cn2CCNC(=O)CCc1ccc2n1[B-](F)(F)[N+]1=C(c3ccc[nH]3)C=CC1=C2 [Azamelatonin-1-NB590]	–	–	NanoBRET Fold Response (0.1μM tracer): 0.96; NanoBRET Fold Response (1μM tracer): 0.95
O=C(CCOCCOCCOCCOCCNC(=O)CCc1ccc2n1[B-](F)(F)[N+]1=C(c3ccc[nH]3)C=CC1=C2)NCCCN1CCN(C2=Nc3ccccc3Oc3ccc(Cl)cc32)CC1 [Loxapine-a-2-NB590]	3.76	3.42	–
N#CN/C(=N\CCNC(=O)c1ccc(N)cc1)NCCCOc1cccc(CN2CCCCC2)c1 [Aminopotentidine (unmodified)]	–	–	NanoBRET Fold Response (ADRA1A, other tracers/Aminopotentidine (unmodified), 0.1μM): 1.03; NanoBRET Fold Response (ADRA1A, other tracers/Aminopotentidine (unmodified), 1μM): 1.07
COc1ccccc1N1CCN(CCCCN2C(=O)c3ccc(CNC(=O)CCOCCOCCOCCOCCNC(=O)CCc4ccc5n4[B-](F)(F)[N+]4=C(c6ccc[nH]6)C=CC4=C5)cc3C2=O)CC1 [NAN-190-2-NB590]	5.18	4.33	–
CC(C)N(CC[C@H](c1ccccc1)c1cc(CCNC(=O)c2ccc(CNC(=O)CCc3ccc4n3[B-](F)(F)[N+]3=C(c5ccc[nH]5)C=CC3=C4)cc2)ccc1O)C(C)C [Tolterodine-BZ-NB590]	1.56	2.17	–
O=C(CCc1ccc2n1[B-](F)(F)[N+]1=C(c3ccc[nH]3)C=CC1=C2)NCCOCCOCCNC(=O)OCCOCCN1CCN(C2=Nc3ccccc3Sc3ccccc32)CC1 [Quetiapine-a-2-NB590]	3.24	3.51	–
CC(C)N(CC[C@H](c1ccccc1)c1cc(CCNC(=O)CCOCCOCCOCCOCCNC(=O)CCc2ccc3n2[B-](F)(F)[N+]2=C(c4ccc[nH]4)C=CC2=C3)ccc1O)C(C)C [Tolterodine-2-NB590]	0.97	0.98	–
CN(C)CCC=C1c2ccccc2CCc2ccc(C(=O)NCCNC(=O)CCOCCOCCOCCOCCNC(=O)CCc3ccc4n3[B-](F)(F)[N+]3=C(c5ccc[nH]5)C=CC3=C4)cc21 [Amitriptyline-a-2-NB590]	–	–	NanoBRET Fold Response (tracer at 0.1μM): 1.38; NanoBRET Fold Response (tracer at 1μM): 2.14
Cc1cc2c(s1)Nc1ccccc1N=C2N1CCN(CCCNC(=O)CCOCCOCCOCCOCCNC(=O)CCc2ccc3n2[B-](F)(F)[N+]2=C(c4ccc[nH]4)C=CC2=C3)CC1 [Olanzapine-a-2-NB590]	2.86	3.58	–
N#CN=C(NCCCOc1cccc(CN2CCCCC2)c1)NCCNC(=O)CCOCCOCCOCCOCCNC(=O)CCc1ccc2n1[B-](F)(F)[N+]1=C(c3ccc[nH]3)C=CC1=C2 [Aminopotentidine-2-NB590]	1.05	1.00	–
Cc1nc2n(c(=O)c1CCN1CCC(c3noc4cc(F)ccc34)CC1)CCCC2OC(=O)NCCOCCOCCOCCOCCNC(=O)CCc1ccc2n1[B-](F)(F)[N+]1=C(c3ccc[nH]3)C=CC1=C2 (stereo not drawn) [Risperidone-2-NB590]	4.86	3.45	–
CN(C)CCC=C1c2ccccc2CCc2ccc(C(=O)NCCNC(=O)CCOCCOCCOCCOCCNC(=O)CCc3ccc4n3[B-](F)(F)[N+]3=C(c5ccc[nH]5)C=CC3=C4)cc21 [Amitriptyline-b-2-NB590]	–	–	NanoBRET Fold Response (tracer at 0.1μM, listed as amitriptyline-b-2-NB590): 4.73; NanoBRET Fold Response (tracer at 1μM, listed as amitriptyline-b-2-NB590): 2.23

— paper PMC8151276, “An Integrated Approach toward NanoBRET Tracers for Analysis of GPCR Ligand Engagement” (Molecules, 2021)
